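Protocol summary: plate cells (96-well), add compound at 5 concentrations, incubate 48 h, interpolate endpoints linearly. Here, GI50 denotes the concentration required for 50% inhibition of growth. TGI marks complete inhibition of growth.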

Test systems include 786-0 renal; CAKI-1 renal; IGROV1 ovarian; M14 melanoma; MALME-3M melanoma; MDA-MB-231 breast; OVCAR-5 ovarian; RPMI-8226 leukemia; SK-MEL-5 melanoma; UACC-257 melanoma.
Common to all, as to experiment: NCI-60 cell line screen, 48 h

Consider `COc1ccc2[nH]c3c(C)c4c(c(C)c3c2c1)CN(C)C=C4`, for which the TGI worked out at 4.05 µM in the assay with 786-0 renal; 57.5 µM in the assay on CAKI-1 renal; 39.8 µM with IGROV1 ovarian; 22.7 µM in the assay on M14 melanoma; 3.92 µM with MALME-3M melanoma; 70 µM with MDA-MB-231 breast. Moreover, the TGI in the assay on OVCAR-5 ovarian is 47 µM; with RPMI-8226 leukemia, 61.9 µM; in the assay with SK-MEL-5 melanoma, 6.75 µM; in the assay with UACC-257 melanoma it was 16.8 µM.

For `O=C1OC(c2ccc([N+](=O)[O-])cc2)=N/C1=C\c1ccc(Cl)cc1`, the TGI with 786-0 renal, with CAKI-1 renal, in the assay on IGROV1 ovarian, in the assay with M14 melanoma, with MALME-3M melanoma and in the assay on MDA-MB-231 breast was over 100 µM throughout. The TGI in the assay on OVCAR-5 ovarian, in the assay on RPMI-8226 leukemia, in the assay with SK-MEL-5 melanoma and in the assay on UACC-257 melanoma was over 100 µM each time.

On to `O=C(CSSCC(=O)c1ccc(Cl)cc1)c1ccc(Cl)cc1`, for which the GI50 with 786-0 renal is 4.41 µM; with CAKI-1 renal it was 4.99 µM; in the assay with IGROV1 ovarian, 5.83 µM; with M14 melanoma, 5.59 µM; with MALME-3M melanoma, 3.19 µM; in the assay on MDA-MB-231 breast it was 4.93 µM. In addition, the GI50 is 5.83 µM in the assay on OVCAR-5 ovarian, 3.2 µM in the assay on RPMI-8226 leukemia, 3.32 µM with SK-MEL-5 melanoma and 5.18 µM with UACC-257 melanoma. The TGI in the assay on 786-0 renal worked out at 14.5 µM; with CAKI-1 renal, 28.6 µM; with IGROV1 ovarian it was 26.6 µM; in the assay on M14 melanoma, 22.1 µM; in the assay with MALME-3M melanoma it was 17 µM; with MDA-MB-231 breast, 24.2 µM. Further, the TGI in the assay on OVCAR-5 ovarian came out at 21.5 µM; in the assay with RPMI-8226 leukemia, 12.3 µM; in the assay with SK-MEL-5 melanoma, 10.5 µM; in the assay on UACC-257 melanoma it was 34.4 µM.

`O=C1OC(C(O)CO)C(C(O)CO)OC1=O` (stereo not given): the TGI in the assay on 786-0 renal, with CAKI-1 renal, with IGROV1 ovarian, with M14 melanoma, in the assay with MALME-3M melanoma and with MDA-MB-231 breast was over 10 µM in each case. Moreover, the TGI in the assay with OVCAR-5 ovarian, in the assay on RPMI-8226 leukemia, in the assay on SK-MEL-5 melanoma and in the assay on UACC-257 melanoma was over 10 µM each time.

With `O=[N+]([O-])c1ccc(Sc2cccc[n+]2[O-])c2nonc12`, the GI50 in the assay on 786-0 renal was 9.18 µM; in the assay with CAKI-1 renal, 4.85 µM; in the assay on IGROV1 ovarian, 3.21 µM; in the assay on M14 melanoma it was 4.32 µM; in the assay with MALME-3M melanoma it was 2.09 µM; in the assay with MDA-MB-231 breast, 4.7 µM. The GI50 was 4.32 µM in the assay on OVCAR-5 ovarian, 2.12 µM with RPMI-8226 leukemia, 5.72 µM in the assay with SK-MEL-5 melanoma and 11.5 µM with UACC-257 melanoma. Also, the TGI with 786-0 renal amounted to 22.3 µM; in the assay with CAKI-1 renal it was 15.4 µM; in the assay on IGROV1 ovarian it was 14.5 µM; in the assay with M14 melanoma, 16.4 µM; with MALME-3M melanoma, 5.34 µM; with MDA-MB-231 breast it was 16 µM. The TGI in the assay on OVCAR-5 ovarian was 17.9 µM; with RPMI-8226 leukemia, over 100 µM; in the assay on SK-MEL-5 melanoma, 18.7 µM; with UACC-257 melanoma, 24.7 µM.

`COc1ccc(C2=C(c3ccc(OC)cc3)C(=O)OC2)cc1`: the GI50 was 2.11 µM in the assay with 786-0 renal; 0.489 µM in the assay with CAKI-1 renal; 5.03 µM in the assay on IGROV1 ovarian; 1.64 µM with M14 melanoma; 3.91 µM in the assay with MALME-3M melanoma; 5.15 µM in the assay on MDA-MB-231 breast. Moreover, the GI50 in the assay on OVCAR-5 ovarian was 20.2 µM; in the assay with RPMI-8226 leukemia, 1.71 µM; in the assay with SK-MEL-5 melanoma, 0.472 µM; in the assay on UACC-257 melanoma it was 40.1 µM. In addition, the TGI was 10.9 µM with 786-0 renal; 14.8 µM with CAKI-1 renal; over 100 µM in the assay with IGROV1 ovarian; 12.4 µM in the assay on M14 melanoma; 35.4 µM in the assay with MALME-3M melanoma; over 39.3 µM in the assay with MDA-MB-231 breast. For the same compound, the TGI with OVCAR-5 ovarian was over 100 µM; with RPMI-8226 leukemia, 11.4 µM; with SK-MEL-5 melanoma, 5.9 µM; with UACC-257 melanoma, over 100 µM.

In the case of `C[C@H]1C[C@@H](n2c(Nc3ccc(OC(F)(F)F)cc3)nc3cc(CCC(=O)O)ccc32)CC(C)(C)C1`, the GI50 with 786-0 renal was 5.5 µM; with CAKI-1 renal it was 15.4 µM; in the assay with IGROV1 ovarian it was 12.6 µM; with M14 melanoma, 7.09 µM; in the assay with MALME-3M melanoma, 16.2 µM; in the assay on MDA-MB-231 breast, 16 µM. For the same compound, the GI50 in the assay with OVCAR-5 ovarian is 17 µM; with RPMI-8226 leukemia, 10.1 µM; with SK-MEL-5 melanoma it was 5.38 µM; with UACC-257 melanoma it was 16.6 µM. Further, the TGI in the assay with 786-0 renal came out at 19.7 µM; in the assay with CAKI-1 renal, 28.8 µM; in the assay with IGROV1 ovarian it was 28.7 µM; in the assay with M14 melanoma, 25 µM; in the assay with MALME-3M melanoma it was 37.3 µM; in the assay on MDA-MB-231 breast it was 32.9 µM. In addition, the TGI in the assay with OVCAR-5 ovarian is 31.5 µM; in the assay with RPMI-8226 leukemia it was 50.9 µM; in the assay on SK-MEL-5 melanoma, 17.9 µM; with UACC-257 melanoma, 39.4 µM.

In the case of `COc1ccc2nc3cc(Cl)ccc3c(Nc3ccccc3-c3ccccc3Nc3c4ccc(Cl)cc4nc4ccc(OC)cc34)c2c1`, the TGI with 786-0 renal was over 59 µM; with CAKI-1 renal it was over 88.1 µM; in the assay on IGROV1 ovarian it was over 71.1 µM; in the assay on M14 melanoma, over 87.5 µM; in the assay on MALME-3M melanoma, 68.6 µM; in the assay with MDA-MB-231 breast, over 100 µM. Further, the TGI in the assay with OVCAR-5 ovarian is over 85.9 µM; in the assay on RPMI-8226 leukemia it was over 47.7 µM; in the assay with SK-MEL-5 melanoma, 30.7 µM; in the assay with UACC-257 melanoma it was over 46.4 µM.

For the compound `O=C1/C(=C/c2ccc(F)cc2)COc2ccc(O)c(O)c21`, the GI50 with 786-0 renal is 1.84 µM; in the assay on CAKI-1 renal it was 1.65 µM; with IGROV1 ovarian, 1.1 µM; in the assay with M14 melanoma, 3.21 µM; in the assay with MALME-3M melanoma it was 1.68 µM; in the assay with MDA-MB-231 breast, 1.43 µM. The GI50 in the assay on OVCAR-5 ovarian is 3 µM; with RPMI-8226 leukemia, 0.26 µM; in the assay on SK-MEL-5 melanoma, 3.16 µM; in the assay with UACC-257 melanoma it was 2.99 µM. Further, the TGI with 786-0 renal was 5.63 µM; with CAKI-1 renal, 5.61 µM; in the assay on IGROV1 ovarian, 3.94 µM; with M14 melanoma, 19.2 µM; with MALME-3M melanoma, 4.34 µM; in the assay with MDA-MB-231 breast, 6.25 µM. The TGI in the assay with OVCAR-5 ovarian was 8.99 µM; with RPMI-8226 leukemia, 0.714 µM; with SK-MEL-5 melanoma, 11.7 µM; in the assay with UACC-257 melanoma, 17.7 µM.
